What was measured:
Assay type in all cases: biochemical
human PPIP5K2^KD = biological target: T1, human PPIP5K2^KD (Homo sapiens, UniProt O43314); test: HPLC assay of [3H]InsP6 phosphorylation (InsP6 kinase activity)
T1 construct: The kinase domain of human PPIP5K2 (PPIP5K2^KD; residues 1–366); made in house
T1 sequence (O43314 1-366): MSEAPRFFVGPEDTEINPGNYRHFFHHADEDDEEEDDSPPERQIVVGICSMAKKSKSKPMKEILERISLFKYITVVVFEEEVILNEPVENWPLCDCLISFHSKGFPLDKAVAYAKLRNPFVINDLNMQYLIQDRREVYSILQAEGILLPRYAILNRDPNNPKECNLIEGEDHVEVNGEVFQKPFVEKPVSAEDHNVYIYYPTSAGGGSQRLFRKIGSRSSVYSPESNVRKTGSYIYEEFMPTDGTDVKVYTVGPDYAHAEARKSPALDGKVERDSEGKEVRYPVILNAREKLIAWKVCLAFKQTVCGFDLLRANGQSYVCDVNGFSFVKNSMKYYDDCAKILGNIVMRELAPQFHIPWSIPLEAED
Protocol: (§1) The initial InsP6 concentration was either 500 nM, 70 nM, or 40 nM. Various concentrations of 2,5-di-O-Bn-InsP4 were present as indicated. Radioactivity was assessed using an in-line Flo1 detector. The ADP-driven dephosphorylation of 100 nM 1,5-[PP]2-InsP4 by PPIP5K2^KD was usually determined by a luminescence-based assay of ATP accumulation ([Riley et al., 2012; Weaver et al., 2013]). The IC50 values were determined using GraphPad Prism v6.02 (n ≥ 3). In some experiments, 1,5-[PP]2-[^3H]InsP4 dephosphorylation by PPIP5K2^KD was assayed in 50 μl buffer containing 50 mM KCl, 20 mM HEPES pH 7.0, 7 mM MgSO4, 5 mM ADP, 1 mM EDTA. Reactions were then quenched, neutralized, and analyzed with HPLC using a Partisphere SAX column ([Weaver et al., 2013]); 1 ml fractions were collected for liquid scintillation spectrometry. The ATPase activity of PPIP5K2^KD (10–270 μg/ml) was assayed from Pi release following incubation at 37°C for 120–180 min in 20 μl reaction mixtures containing 20 mM Tris/HCl, pH 7.5, 10 mM ATP, 100 mM KCl, 0.1 mM EDTA, and 13 mM MgCl2.
S1, related to Figure 4. 2,5-Di-O-Bn-InsP4 (10) inhibits both ADP-driven [PP]2-[3H]InsP4 dephosphorylation and ATP-driven [3H]InsP6 phosphorylation by PPIP5K2 […]
E:Incubation buffers (see Methods) contained 500 nM [3H]InsP6 plus either 12.5 ng PPIP5K2 KD (panel D) or 30 ng PPIP5K2KD plus 1.5 μM 2,5-di-O-Bn-InsP4 (10) (panel E). Reactions rates in the absence and presence of 2,5-di-O-Bn-InsP4 (10) were calculated to be 52 and 21 nmol/mg protein/min, respectively. […]

[1] = biological target: T2, PPIP5K2^KD (kinase domain of human PPIP5K2) (Homo sapiens, UniProt O43314); test: HPLC analysis of 1,5-[PP]2-[3H]InsP4 dephosphorylation; settings: 2 μM analog, 200 nM 1,5-[PP]2-[3H]InsP4, 20 min; rate in absence 192
T2 construct: The kinase domain of human PPIP5K2 (PPIP5K2^KD; residues 1–366); made in house
T2 sequence (O43314 1-366): T1 sequence (O43314 1-366)
Protocol: as §1
S1, related to Figure 4. 2,5-Di-O-Bn-InsP4 (10) inhibits both ADP-driven [PP]2-
[3H]InsP4 dephosphorylation and ATP-driven [3H]InsP6 phosphorylation by PPIP5K2 […]
Bn-InsP4 (10) (panel C). After 20 min reactions were quenched and analyzed by HPLC […]
O-Bn-InsP4 (10) were calculated to be 192 and 95 nmol/mg protein/min, respectively. […]

human IP6K2 = biological target: T3, human IP6K2 (Homo sapiens, UniProt Q9UHH9); test: HPLC assay of [3H]InsP6 phosphorylation by IP6K2; settings: [InsP6] = 500 nM; data not shown; read-out: IC50, inhibition of IP6K2 activity
T3 construct: Full-length human IP6K2, the kinase domain of human PPIP5K2; made in house
T3 sequence (Q9UHH9 1-426): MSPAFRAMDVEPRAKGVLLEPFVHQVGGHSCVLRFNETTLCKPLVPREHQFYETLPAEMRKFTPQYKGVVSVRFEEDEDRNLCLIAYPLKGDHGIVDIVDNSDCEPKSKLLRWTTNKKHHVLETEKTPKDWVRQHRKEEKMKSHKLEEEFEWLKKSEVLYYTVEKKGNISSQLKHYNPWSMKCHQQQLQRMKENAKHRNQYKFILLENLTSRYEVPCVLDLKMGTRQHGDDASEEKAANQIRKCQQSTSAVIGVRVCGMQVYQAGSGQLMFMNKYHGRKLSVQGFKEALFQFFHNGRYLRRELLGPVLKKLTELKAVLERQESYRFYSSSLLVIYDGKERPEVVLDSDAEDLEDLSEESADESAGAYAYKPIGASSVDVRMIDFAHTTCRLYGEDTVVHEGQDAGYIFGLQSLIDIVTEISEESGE
Protocol: as §1

- reaction rate of [3H]InsP6 phosphorylation in the presence of analog (human PPIP5K2^KD; 1.5 μM analog, 500 nM [3H]InsP6, rate in absence 52): 21 nmol/mg protein/min
- nature of inhibition of InsP6 kinase activity (human PPIP5K2^KD; Dixon plot, Figure 4C): competitive
- Ki (human PPIP5K2^KD; Figure 4C, read-out: Ki, inhibition of InsP6 kinase activity (Dixon plot)): 240 nM
- IC50 (human PPIP5K2^KD; [InsP6] = 500 nM, read-out: IC50, inhibition of InsP6 phosphorylation): 1000 nM
- reaction rate of [PP]2-[3H]InsP4 dephosphorylation in the presence of analog [1]: 95 nmol/mg protein/min
- IC50 (human IP6K2): 63000 nM
Structure (SMILES): O=P(O)(O)O[C@@H]1[C@@H](OCc2ccccc2)[C@H](OP(=O)(O)O)[C@@H](OP(=O)(O)O)[C@@H](OCc2ccccc2)[C@H]1OP(=O)(O)O [compound 10, 2,5-di-O-Bn-InsP4]

Source: paper PMC4085797, “Synthetic Inositol Phosphate Analogs Reveal that PPIP5K2 Has a Surface-Mounted Substrate Capture Site that Is a Target for Drug Discovery” (Chemistry & Biology, 2014)
